Experimental data as given in patent US20110195845A1, “Constructs for Expressing Herbicide Tolerance Genes, Related Plants, and Related Trait Combinations” (Dow AgroSciences LLC, priority 2008, published 2011).

What was measured:
[1] = system: Escherichia coli BL21-Star (DE3) with CsVMV promoter//PAT (3037); experiment: Viral promoter driven complementation on glufosinate, plasmid 3037; type: cell-based; conditions: 48 hrs @37 C; further: key: ++++ = Heavy Lawn Growth; +++ = Lawn Growth; ++ = Lots of Distinct Colonies; + = Scattered Colony Growth
Experimental: Plasmid constructs in which the DSM-2 (v2) and PAT gene coding sequences were expressed, under either the viral promoters CsVMV or the plant promoter AtUbi10, were assayed for complementation on minimal media containing glufosinate. The plasmids 3778 (Rb7 MARv3//AtUbi10 promoter//DSM-2 (v2)//Atu Orf 1 3′UTR), 3779 (Rb7 MARv3//AtUbi10 promoter//PAT//Atu Orf 1 3′UTR), 3264 (CsVMV promoter//DSM-2//Atu Orf 24 3′UTR), 3037 (CsVMV promoter//PAT//Atu Orf 25/26 3′UTR), and 770 (control plasmid containing CsVMV promoter//GUS v3//Atu Orf 24 3′UTR) were transformed into Escherichia coli BL21-Star (DE3) and grown up in complex media. Five microliters of the cultures were plated on minimal media containing increasing concentrations of Glufosinate and incubated at 37° C. for 48 hours.

[2] = system: Agrobacterium tumefaciens LBA4404s; experiment: Bacterial strain response to glufosinate on minimal media; type: cell-based; design: key: +++ = Heavy Lawn Growth; ++ = Light lawn growth; + = patchy lawn growth; −− = No Growth; conditions: 48 hrs @ 25 C
Experimental: (§1) Selected cell lines of Escherichia coli and Agrobacterium tumefaciens were inoculated on minimal media containing incrementally increasing concentrations of Glufosinate (BASTA). The cell lines; BL21-Star (DE3), Top10, DH5α, Agrobacterium tumefaciens C58, and Agrobacterium tumefaciens LBA4404s were initially grown up on complex media. The Escherichia coli strains were grown in LB and the Agrobacterium tumefaciens strains were grown in YEP. Five microliters of bacterial culture was inoculated and dispersed evenly onto minimal media plates containing various concentrations of glufosinate. The concentrations consisted of 0 μg/ml, 250 μg/ml, 500 μg/ml, 1000 μg/ml, 2000 μg/ml, and 4000 μg/ml of BASTA. In addition, the bacterial strains were inoculated onto a plate of complex media as a control—Agrobacterium tumefaciens strains were inoculated on YEP agar plates, and Escherichia coli strains were inoculated on LB agar plates. The plates containing the Escherichia coli strains were incubated at 37° C. for 24 hours. The plates containing the Agrobacterium tumefaciens strains were incubate at 25° C. for 48 hours. […] Table 7 illustrates the capability of the various strains to grow on minimal media containing glufosinate.

[3] = system: Agrobacterium tumefaciens C58; experiment: as above; type: cell-based; design: key: +++ = Heavy Lawn Growth; ++ = Light lawn growth; + = patchy lawn growth; −− = No Growth; conditions: 48 hrs @ 25 C
Experimental: as §1

[4] = system: DSM-2 v2 (pDAS1941) T2 corn; experiment: T2 corn response to glufosinate applied postemergence; type: in vivo; conditions: for % Injury Ave / individuals with % Injury 20-40% / individuals with % Injury <20% / individuals with % Injury >40%: 14DAT
Description: (§2) The seed from the cross of T1 DSM-2 (v2)×5× H751 were planted into 4-inch pots containing Metro Mix media and at 2 leaf stage were sprayed in the track sprayer set to 187 L/ha at 560 g ai/ha glufosinate to remove nulls. At 7 DAT nulls were removed and resistant plants were sprayed in the track sprayer as above at the following rates: 0, 560, 1120, 2240, and 4480 g ai/ha glufosinate. Plants were graded at 3 and 14 DAT and compared to 5× H751× Hi II control plants.

PAT (pDAS1942) corn = experiment: as above; type: in vivo; conditions: 14DAT
Description: as §2

[5] = system: T0 PAT-transformed corn plants; experiment: Leaf paint with glufosinate in T0 corn; type: in vivo; conditions: 2 WAT
Experimental: (§3) T0 DSM-2 (v2) plants were painted with a rundown of glufosinate herbicide. Four siblings from each of 15 T0 events were tested, and 4 leaves on each individual plant received a rundown of glufosinate at approximately V8 stage. Rundown treatments were randomized for each rate allowing for variation of treatment location on individual leaves. For corn, 0.25% v/v glufosinate is the minimum effective dose to distinguish sensitive plants from ones with meaningful levels of resistance. Elevated rates were also applied to determine relative levels of resistance (0.5%, 1.0%, and 2.0% v/v). Glufosinate treatments were applied using cotton tipped applicators to a treatment area of approximately 2.5 cm in diameter.
(§4) Table 11 compares the response of DSM-2 (v2) and control genes to impart glufosinate resistance to corn T0 transformants. Response is presented in terms of % visual injury 2 WAT. […] Since each T0 is an independent transformation event, one can expect significant variation of individual T0 responses within a given rate. An arithmetic mean and standard deviation is presented for each treatment. Untransformed wildtype corn served as a glufosinate sensitive control. The DSM-2 (v2) gene imparted herbicide resistance to individual T0 corn plants. Within a given treatment, the level of plant response varied greatly and can be attributed to the fact each plant represents an independent transformation event.

[6] = system: T0 DSM-2 (v2)-transformed corn plants; experiment: Leaf paint with glufosinate in T0 corn; type: in vivo; conditions: for % Injury: 2 WAT
Experimental: as §3, §4

[7] = 560 g ai/ha glufosinate postemergence
[8] = 1120 g ai/ha glufosinate postemergence
[9] = 2240 g ai/ha glufosinate postemergence
[10] = 4480 g ai/ha glufosinate postemergence
[11] = 0.25% v/v glufosinate leaf paint
[12] = 0.5% v/v glufosinate leaf paint

## CP(=O)(O)CCC(N)C(=O)O (stereo not shown) [glufosinate]
[1]; 250 μg/ml BASTA
  bacterial growth on minimal media: ++
[1]; 500 μg/ml BASTA
  bacterial growth on minimal media: +
[2]; 250 μg/ml BASTA
  bacterial growth on minimal media: +++
[2]; 500 μg/ml BASTA
  bacterial growth on minimal media: ++
[2]; 1000 μg/ml BASTA
  bacterial growth on minimal media: ++
[2]; 2000 μg/ml BASTA
  bacterial growth on minimal media: +
[2]; 4000 μg/ml BASTA
  bacterial growth on minimal media: −−
[3]; 250 μg/ml BASTA
  bacterial growth on minimal media: +++
[3]; 500 μg/ml BASTA
  bacterial growth on minimal media: +++
[3]; 1000 μg/ml BASTA
  bacterial growth on minimal media: +++
[3]; 2000 μg/ml BASTA
  bacterial growth on minimal media: ++
[3]; 4000 μg/ml BASTA
  bacterial growth on minimal media: −−
[4]; [7]
  % Injury Ave: 6%
  individuals with % Injury 20-40%: 0
  individuals with % Injury <20%: 4
  individuals with % Injury >40%: 0
[4]; [8]
  % Injury Ave: 18%
  individuals with % Injury 20-40%: 2
  individuals with % Injury <20%: 2
  individuals with % Injury >40%: 0
[4]; [9]
  % Injury Ave: 21%
  individuals with % Injury 20-40%: 3
  individuals with % Injury <20%: 1
  individuals with % Injury >40%: 0
[4]; [10]
  % Injury Ave: 29%
  individuals with % Injury 20-40%: 4
  individuals with % Injury <20%: 0
  individuals with % Injury >40%: 0
[4]; up to 2240 g ai/ha glufosinate
  injury of individual plants: less than 20%
PAT (pDAS1942) corn; [7]
  individuals with % Injury 20-40%: 0
  individuals with % Injury >40%: 0
PAT (pDAS1942) corn; [8]
  % Injury Ave: 25%
  individuals with % Injury 20-40%: 1
  individuals with % Injury <20%: 0
PAT (pDAS1942) corn; [10]
  % Injury Ave: 33%
  individuals with % Injury 20-40%: 3
  individuals with % Injury >40%: 1
[5]; [11]
  % Injury: 1%
[5]; [12]
  % Injury: 3%
[5]; 1% v/v glufosinate leaf paint
  % Injury: 6%
[5]; 2% v/v glufosinate leaf paint
  % Injury: 9%
[6]; [11]
  % Injury: 0%
[6]; [12]
  % Injury: 1%
[6]; 1% v/v glufosinate leaf paint
  % Injury: 2%
[6]; 2% v/v glufosinate leaf paint
  % Injury: 4%
[6]; up to 2% v/v glufosinate
  performance compared to PAT-transformed plants: performs better overall than PAT-transformed plants
